A word on the EC50: it is the concentration at which the effect is half-maximal. The low end stands for a more potent agent, the high end for a less potent agent. The term Emax denotes the greatest response seen or fitted, relative to the assay's reference.

The source of these data is patent US11472803B2, “7-substituted 1-aryl-naphthyridine-3-carboxylic acid amides and use thereof” (Bayer Aktiengesellschaft, priority 2016, dated 2022).

Molecules are shown by their SMILES.

The test has as its target T1, human M2 receptor (Homo sapiens, UniProt P08172).
T1 construct: expressed in transfected cells; host or cells: CHO-DUKX (CHO-DUKX-M2-GIRK)
T1 sequence (P08172 1-466): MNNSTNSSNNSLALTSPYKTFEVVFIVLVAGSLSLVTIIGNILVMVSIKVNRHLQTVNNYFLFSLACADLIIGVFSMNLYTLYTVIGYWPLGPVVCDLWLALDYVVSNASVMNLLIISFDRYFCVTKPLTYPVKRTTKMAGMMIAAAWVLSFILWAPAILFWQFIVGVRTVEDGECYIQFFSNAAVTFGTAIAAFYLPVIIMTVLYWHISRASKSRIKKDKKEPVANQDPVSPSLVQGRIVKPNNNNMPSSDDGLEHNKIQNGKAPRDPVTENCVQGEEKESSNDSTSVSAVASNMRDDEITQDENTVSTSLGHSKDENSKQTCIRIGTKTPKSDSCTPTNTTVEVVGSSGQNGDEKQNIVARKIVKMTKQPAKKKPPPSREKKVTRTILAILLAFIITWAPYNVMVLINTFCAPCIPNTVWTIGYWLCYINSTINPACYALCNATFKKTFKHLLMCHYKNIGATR
Kind of test: Functional M2-GIRK1/4 activation test: allosteric potency (EC50) and efficiency at EC20 acetylcholine. It is filed as cell-based. To be noted: CHO-DUKX-M2-GIRK cells; for EC50: voltage-sensitive dye, acetylcholine at EC20, in some cases mean of two or more determinations; for Emax / Efficiency: boosting of the acetylcholine effect at EC20 acetylcholine concentration. From the text:
The binding of orthosteric agonists (endogenous ligand: acetylcholine) to the M2 receptor leads to receptor activation or a change in conformation of the receptor in the manner of a shift in equilibrium in favour of the active receptor conformation.
The agonist-induced change in conformation of the M2 receptor results in a Gαi protein activation. […] Under physiological conditions, the result is then a selective efflux of potassium from the cell along the electrochemical gradient. […] The extent of hyperpolarization can therefore be regarded as a measure of the activation of the M2 receptor.
The test cell used is a recombinant CHO-DUKX cell line which has been stably transfected with cDNA coding for the human M2 receptor and with cDNA coding for both GIRK1/4 subunits (CHO-DUKX-M2-GIRK). The transmembrane potential, or the relative changes in the transmembrane potential as a function of substance addition or M2 activation, is determined by means of a voltage-sensitive dye (FLIPR Membrane Potential Assay Kit Blue, Molecular Devices #R8034) and the measurement of cell fluorescence using a proprietary fluorescence imaging instrument.
The sowing medium consisted of MEM alpha medium (supplemented with 5% PCS, 2% Glutamax, no genticin).
For the particular measurement, the medium was removed and the cells were laden with the volt-age-sensitive dye for at least 6 min at room temperature (30 μl of loading buffer per 384-well). This was followed, in a first measurement, by the determination of the fluorescence for the resting transmembrane potential for a period of 5 sec. Thereafter, 10 μl in each case of the test substances diluted in loading buffer were added, followed by a second measurement to determine the transmembrane potential for a period of 50 sec in 1 sec increments. Finally, the cells were admixed with 10 μl of agonist solution (acetylcholine dissolved in loading buffer). Acetylcholine was used at the concentration corresponding to the EC20, which had been determined in a preliminary test. The M2-mediated GIRK1/4 activation or hyperpolarization was then monitored in a third measurement over a period of 60 sec. The EC50 value (degree of allosteric potency of test compound) and the efficiency (measure of the boosting of the acetylcholine effect at an EC20 acetylcholine concentration) were determined with the aid of a 4-parameter logistic function (Hill function).

The compound `CC(C)(NC(=O)c1cn(-c2c(F)cc(F)cc2F)c2nc(N3CC4(COC4)C3)c(F)cc2c1=O)C(F)(F)C(F)(F)F` (racemic) [Example 163, 6-Fluoro-7-(2-oxa-6-azaspiro[3.3]hept-6-yl)-4-oxo-N-(3,3,4,4,4-pentafluoro-2-methylbutan-2-yl)-1-(2,4,6-trifluorophenyl)-1,4-dihydro-1,8-naphthyridine-3-carboxamide] displayed an EC50 of 25 nM and an Emax of 93%.
The compound `CC(NC(=O)c1cn(-c2c(F)cc(F)cc2F)c2nc(N3CC(CO)(CO)C3)c(F)cc2c1=O)C(F)(F)C(F)(F)F` (racemic) [Example 168, 7-[3,3-Bis(hydroxymethyl)azetidin-1-yl]-6-fluoro-4-oxo-N-[3,3,4,4,4-pentafluorobutan-2-yl]-1-(2,4,6-trifluorophenyl)-1,4-dihydro-1,8-naphthyridine-3-carboxamide] registered an EC50 of 4 nM and an Emax of 86%.
In the case of `CCC(NC(=O)c1cn(-c2c(F)cc(F)cc2F)c2nc(N3CC(CO)(CO)C3)c(F)cc2c1=O)C(F)(F)C(F)(F)F` (racemic) [Example 171, 7-[3,3-Bis(hydroxymethyl)azetidin-1-yl]-6-fluoro-4-oxo-N-[1,1,1,2,2-pentafluoropentan-3-yl]-1-(2,4,6-trifluorophenyl)-1,4-dihydro-1,8-naphthyridine-3-carboxamide], the half-maximal effective concentration (EC50) amounted to 1.3 nM and the Emax stood at 95%.
Turning to `CC(C)C(COC(F)(F)F)NC(=O)c1cn(-c2c(F)cc(F)cc2F)c2nc(N3C[C@@H](O)[C@H](O)C3)c(F)cc2c1=O` (mixture of isomers) [Example 233, 7-[(3R,4R)-3,4-dihydroxypyrrolidin-1-yl]-6-fluoro-N-[3-methyl-1-(trifluoromethoxy)butan-2-yl]-4-oxo-1-(2,4,6-trifluorophenyl)-1,4-dihydro-1,8-naphthyridine-3-carboxamide], the midpoint of the response, the EC50, lay at 2.3 nM and the Emax was 100%.
With `CCC(NC(=O)c1cn(-c2c(F)cc(F)cc2F)c2nc(N3C[C@@H](O)[C@H](O)C3)c(F)cc2c1=O)C(C)C` (single isomer, unassigned) [Example 29], a half-maximal effect (EC50) was put at 2.5 nM and the Emax worked out at 100%.
Consider `CCC(NC(=O)c1cn(-c2c(F)cc(F)cc2F)c2nc(N3C[C@@H](O)[C@H](O)C3)c(F)cc2c1=O)C(C)C` (single isomer, unassigned) [Example 30], for which it took 2.6 nM to reach a half-maximal effect (EC50) and the Efficiency is on record as 100%.
`CC(NC(=O)c1cn(-c2ncc(F)cc2F)c2nc(N3CC(O)C(O)C3)c(F)cc2c1=O)C(F)(F)C(F)(F)F` (single isomer, unassigned) [Example 46]: the response was half-maximal at 51 nM (EC50) and the Efficiency was 100%.
With `CC[C@H](NC(=O)c1cn(-c2c(F)cc(F)cc2Cl)c2nc(N3C[C@@H](O)[C@H](O)C3)c(F)cc2c1=O)C(F)(F)F` (single isomer, unassigned) [Example 47], it took 48 nM to reach a half-maximal effect (EC50) and the Emax stood at 81%.
Take `CC(C)(NC(=O)c1cn(-c2c(F)cc(F)cc2Cl)c2nc(N3C[C@@H](O)[C@H](O)C3)c(F)cc2c1=O)C(F)(F)F` (single isomer, unassigned) [Example 49]: the EC50 came to 68 nM and the Emax is 74%.
The compound `CC(C)(NC(=O)c1cn(-c2c(F)cc(F)cc2Cl)c2nc(N3C[C@@H](O)[C@H](O)C3)c(F)cc2c1=O)C(F)(F)F` (single isomer, unassigned) [Example 50] displayed an EC50 of 2.5 nM and an Efficiency of 60%.
`O=C(N[C@@H](C1CC1)C(F)(F)F)c1cn(-c2c(F)cc(F)cc2Cl)c2nc(N3C[C@@H](O)[C@H](O)C3)c(F)cc2c1=O` (single isomer, unassigned) [Example 51] registered a half-maximal effective concentration (EC50) of 36 nM and a maximal response (Emax) of 81%.
`O=C(N[C@@H](C1CC1)C(F)(F)F)c1cn(-c2c(F)cc(F)cc2Cl)c2nc(N3C[C@@H](O)[C@H](O)C3)c(F)cc2c1=O` (single isomer, unassigned) [Example 52] showed an EC50 of 1.3 nM and an Efficiency of 83%.
In the case of `CCN(CC(C)O)c1nc2c(cc1F)c(=O)c(C(=O)N[C@@H](C1CC1)C(F)(F)F)cn2-c1c(F)cc(F)cc1F` (single isomer, unassigned) [Example 66], the EC50 came out at 35 nM and the maximum response (Emax) is 92%.
Compound `CCN(CC(C)O)c1nc2c(cc1F)c(=O)c(C(=O)N[C@@H](C1CC1)C(F)(F)F)cn2-c1c(F)cc(F)cc1F` (single isomer, unassigned) [Example 67] returned an EC50 of 10 nM and an Efficiency of 95%.
In turn, `O=C(N[C@@H](C1CC1)C(F)(F)F)c1cn(-c2c(F)cc(F)cc2Cl)c2nc(N3CC(CO)(CO)C3)c(F)cc2c1=O` (single isomer, unassigned) [Example 70] came in with an EC50 of 100 nM and an Emax of 86%.
For `CCC(COC(F)(F)F)NC(=O)c1cn(-c2c(F)cc(F)cc2F)c2nc(N3C[C@@H](O)[C@@H](O)C3)c(F)cc2c1=O` (single isomer, unassigned) [Example 96], in that order: 16 nM and 96%.
Compound `CCC(COC(F)(F)F)NC(=O)c1cn(-c2c(F)cc(F)cc2F)c2nc(N3C[C@@H](O)[C@@H](O)C3)c(F)cc2c1=O` (single isomer, unassigned) [Example 97] showed an EC50 of 13 nM and an Efficiency of 97%.
`CCC(COC(F)(F)F)NC(=O)c1cn(-c2c(F)cc(F)cc2F)c2nc(N3CC[C@H](O)C3)c(F)cc2c1=O` (single isomer, unassigned) [Example 110]: the midpoint of the response, the EC50, lay at 19 nM and the Emax was 100%.
`CCC(COC(F)(F)F)NC(=O)c1cn(-c2c(F)cc(F)cc2F)c2nc(N3CC[C@H](O)C3)c(F)cc2c1=O` (single isomer, unassigned) [Example 111] gave an EC50 of 7.2 nM and an Efficiency of 99%.
Turning to `CC(NC(=O)c1cn(-c2c(F)cc(F)cc2F)c2nc(N3CC[C@H](O)C3)c(F)cc2c1=O)C(F)(F)C(F)(F)F` (single isomer, unassigned) [Example 114], the EC50 amounted to 7 nM and the Efficiency is reported as 94%.
On to `CCC(NC(=O)c1cn(-c2c(F)cc(F)cc2F)c2nc(N3CC[C@H](O)C3)c(F)cc2c1=O)C(C)C` (single isomer, unassigned) [Example 117], for which the EC50 amounted to 6.9 nM and the Emax was 99%.
`CCC(NC(=O)c1cn(-c2c(F)cc(F)cc2F)c2nc(N3CC[C@H](O)C3)c(F)cc2c1=O)C(C)C` (single isomer, unassigned) [Example 118]: it took 2.8 nM to reach a half-maximal effect (EC50) and the Efficiency came to 100%.
`CC(NC(=O)c1cn(-c2ncc(F)cc2F)c2nc(N3CC[C@H](O)C3)c(F)cc2c1=O)C(F)(F)C(F)(F)F` (single isomer, unassigned) [Example 128] displayed an EC50 of 9.8 nM and an Emax of 90%.
For the compound `CC(NC(=O)c1cn(-c2ncc(F)cc2F)c2nc(N3CC[C@H](O)C3)c(F)cc2c1=O)C(F)(F)C(F)(F)F` (single isomer, unassigned) [Example 129], a half-maximal response (EC50) required 66 nM and the Efficiency was 95%.
As to `CC(C)C(NC(=O)c1cn(-c2c(F)cc(F)cc2F)c2nc(N3C[C@@H](O)[C@@H](O)C3)c(F)cc2c1=O)C(F)(F)F` (single isomer, unassigned) [Example 137], the EC50 came out at 3.3 nM and the Emax is 91%.
`CC(C)C(NC(=O)c1cn(-c2c(F)cc(F)cc2F)c2nc(N3C[C@@H](O)[C@@H](O)C3)c(F)cc2c1=O)C(F)(F)F` (single isomer, unassigned) [Example 138]: a half-maximal effect (EC50) was put at 7.6 nM and the Efficiency is on record as 84%.
The compound `CC(C)C(NC(=O)c1cn(-c2c(F)cc(F)cc2F)c2nc(N3CC[C@H](O)C3)c(F)cc2c1=O)C(F)(F)F` (single isomer, unassigned) [Example 139] had an EC50 of 3.4 nM and an Emax of 100%.
